Assay results as given in patent US20230035586A1, “Salts of R-ketorolac” (Revere Pharmaceuticals, Inc., priority 2019, published 2023).

Tests used:
[1] = Dynamic Vapor Sorption (DVS) moisture sorption/desorption; assay type: physicochemical; conditions: for weight gain from 5-75% RH / weight gain from 5-75% RH, moles of H2O / weight gain above 75% RH / weight gain above 75% RH, moles of H2O: DVS sorption; for weight gain above 75% RH / weight gain above 75% RH, moles of H2O: above 75% RH (up to 95% RH); for form change after DVS, based on XRPD: XRPD of post-DVS solids
Procedure: DVS analysis (FIG. 5) was conducted by first equilibrating at ambient RH, and then dropping to 5% RH. It was then increased to 95% RH and cycled back to 5% RH. The sample was held at 5% RH until XRPD analysis. Upon equilibration from ambient RH (-48%) to 5% RH, the sample loses 0.4 wt %, equivalent to ˜0.1 moles of H2O. From 5-75% RH, the material undergoes a 1.2 wt % gain (˜0.25 moles of H2O). Above 75% RH, the material gains ˜12 wt % (˜3 moles of H2O).
The crystalline salt of R-ketorolac and meglumine was analyzed by DVS (FIG. 10). […] Upon equilibration from ambient RH (˜50%) to 5% RH, the sample loses 0.1 wt %, equivalent to <0.1 mole of H2O. From 5-75% RH, the material undergoes a 0.9 wt % gain (˜0.25 moles of H2O). Above 75% RH, the material gains ˜37 wt % (>12 moles of H2O). Upon desorption to 5% RH, which occurs with hysteresis, the sample retains ˜9.6 wt % (˜2.7 moles of H2O).
Moisture sorption/desorption data were collected on a VTI SGA-100 Vapor Sorption Analyzer. NaCl and PVP were used as calibration standards. Samples were not dried prior to analysis. Sorption and desorption data were collected over a range from 5% to 95% RH at 10% RH increments under a nitrogen purge. The equilibrium criterion used for analysis was less than 0.0100% weight change in 5 minutes with a maximum equilibration time of 3 hours. Data were not corrected for the initial moisture content of the samples.

[2] = in vivo; cited from earlier work

| Compound | weight retained upon desorption to 5% RH ([1]; DVS desorption to 5% RH) [wt %] | weight retained upon desorption to 5% RH, moles of H2O ([1]; DVS desorption to 5% RH) | weight gain from 5-75% RH [1] [wt %] | weight gain from 5-75% RH, moles of H2O [1] | weight gain above 75% RH [1] [wt %] | weight gain above 75% RH, moles of H2O [1] | hygroscopicity above 75% RH ([1]; DVS, above 75% RH) | weight loss upon equilibration from ambient RH to 5% RH ([1]; DVS) [wt %] | weight loss upon equilibration from ambient RH to 5% RH, equivalent moles of H2O ([1]; DVS) | hygroscopicity below 75% RH ([1]; DVS, below 75% RH) | form change after DVS, based on XRPD [1] | moisture after desorption to 5% RH (in words) ([1]; DVS desorption to 5% RH, small hysteresis) | tolerability in rat studies [2] |
| --- | --- | --- | --- | --- | --- | --- | --- | --- | --- | --- | --- | --- | --- |
| CNCC(O)C(O)C(O)C(O)CO.O=C(c1ccccc1)c1ccc2n1CCC2C(=O)O (stereo not drawn) [R-ketorolac meglumine crystalline salt, R-ketorolac meglumine salt] | ~9.6 | ~2.7 moles of H2O | 0.9 | ~0.25 moles of H2O | ~37 | > 12 moles of H2O | highly hygroscopic | 0.1 | < 0.1 moles of H2O | limited hygroscopicity | form change is not observed | – | – |
| NC(CO)(CO)CO.O=C(c1ccccc1)c1ccc2n1CC[C@H]2C(=O)O [R-ketorolac tromethamine salt] | – | – | 1.2 | ~0.25 moles of H2O | ~12 | ~3 moles of H2O | – | 0.4 | ~0.1 moles of H2O | – | form change is not observed | all the gained moisture is lost | – |
| O=C(c1ccccc1)c1ccc2n1CC[C@H]2C(=O)O [R-ketorolac] | – | – | – | – | – | – | – | – | – | – | – | – | much better tolerated than S-ketorolac |
| O=C(c1ccccc1)c1ccc2n1CC[C@@H]2C(=O)O [S-ketorolac] | – | – | – | – | – | – | – | – | – | – | – | – | severe dose limiting toxicities |
